Laboratory results as given in patent US6200999A, “3-Alkoxyisoxazol-4-yl-substituted 2-amino carboxylic acid compounds” (H. Lundbeck A/S, priority 1996, dated 2001).
Structures can show the parent of a compound that is named as a salt.

How the values were obtained:
AMPA receptors = conditions: literature; cited from earlier work
[1] = literature; cited from earlier work
animals = conditions: literature; cited from earlier work
AMPA receptor = assay: Cortical wedge model, AMPA receptor (rat brain slices in vitro); type: cell-based; conditions: receptor subtype AMPA; for EC50: agonists
Description: (§1) The Cortical wedge model is a test in which slices of rat brain is examined in vitro in order to quantify the effect of ligands at the various Glu-receptors and evaluate the pharmacological profile of the ligands (i.e. agonist/antagonist properties). The test was performed as described by Harrison, N. L. and Simmonds, M. A. Br.J.Pharmacol. 1985, 84, 381-391 as modified according to Wheatley, P. L. Br.J.Pharmacol. 1986, 87, 159P.

NMDA receptor = assay: Cortical wedge model, NMDA receptor (rat brain slices in vitro); type: cell-based; conditions: receptor subtype NMDA; for pKi: antagonist
Description: as §1

Row | SMILES | Profile (AMPA receptor) | EC50 (AMPA receptor) | also measured
1 | Cc1onc(C(=O)O)c1CC(N)C(=O)O (racemic) [ACPA] |  |  | agonist effects at AMPA receptors (AMPA receptors): potent AMPA receptor agonist
2 | Cc1onc(O)c1CC(N)C(=O)O (racemic) [AMPA, (RS)-2-amino-3-(3-hydroxy-5-methylisoxazol-4-yl)propionic acid] |  |  | agonist effects at AMPA receptors (AMPA receptors): selective agonist effects at AMPA receptors
3 | NC(Cc1c(O)noc1-c1ccccc1)C(=O)O (racemic) [APPA, (RS)-2-Amino-3-(3-hydroxy-5-phenylisoxazol-4-yl)propionic acid] |  |  | agonist effects at AMPA receptors (AMPA receptors): weak but unique partial agonist profile
4 | CC(C)(C)c1onc(O)c1CC(N)C(=O)O (racemic) [ATPA] |  |  | systemic activity [1]: systemically active; neurotoxic effects (animals): has not been reported to show neurotoxic effects in animals
5 | COc1noc(C(=O)O)c1CC(N)C(=O)O.O (racemic) [Compound 1, (RS)-2-Amino-3-(5-carboxy-3-methoxyisoxazol-4-yl)propionic Acid Hydrate] | Agonist | 1.2 µM | 
6 | CCOc1noc(C(=O)O)c1CC(N)C(=O)O (racemic) [Compound 2, (RS)-2-Amino-3-(5-carboxy-3-ethoxyisoxazol-4-yl)propionic Acid] | Agonist | 4.8 µM | 
7 | CC(C)Oc1noc(C(=O)O)c1CC(N)C(=O)O (racemic) [Compound 3, (RS)-2-Amino-3-(5-carboxy-3-isopropoxyisoxazol-4-yl)propionic Acid] | Agonist | 40 µM | 
8 | CCOc1noc(-c2nnn[nH]2)c1CC(N)C(=O)O (racemic) [Compound 8, (RS)-2-Amino-3-[3-ethoxy-5-(5-tetrazolyl)isoxazol-4-yl]propionic acid] | Agonist | 2000 µM | 
9 | CCCOc1noc(C(=O)O)c1CC(N)C(=O)O (racemic) [Compound 10, (RS)-2-Amino-3-(3-propoxy-5-carboxyisoxazol-4-yl)propionic Acid] | Agonist | 80 µM | 
10 | CCCCOc1noc(C(=O)O)c1CC(N)C(=O)O (racemic) [Compound 11, (RS)-2-Amino-3-(3-butoxy-5-carboxisoxazol-4-yl)propionic Acid] | Part. Agonist | 325 µM | 
11 | C=CCOc1noc(C(=O)O)c1CC(N)C(=O)O (racemic) [Compound 12, (RS)-2-Amino-3-(3-allyloxy-5-carboxyisoxazol-4-yl)propionic Acid] | Agonist | 40 µM | 
12 | NC(Cc1c(C(=O)O)on(Cc2ccccc2)c1=O)C(=O)O (racemic) [Compound 13, (RS)-2-Amino-3-(2-benzyl-5-carboxy-2,3-dihydro-3oxisoxazol-4-yl)propionic Acid, Hydrochloride, Monohydrate] |  |  | Profile (NMDA receptor): Antagonist; pKi (NMDA receptor): 3.5
13 | CCOc1noc(C(=O)O)c1C[C@@H](N)C(=O)O [(R)-2, (R)-2-Amino-3-(5-carboxy-3-ethoxyisoxazol-4-yl)propionic Acid] | Antagonist |  | pKi (AMPA receptor; antagonist): 3.28
14 | CCOc1noc(C(=O)O)c1C[C@H](N)C(=O)O [(S)-2, (S)-2-Amino-3-(5-carboxy-3-ethoxyisoxazol-4-yl)propionic Acid] | Agonist | 4.4 µM | 
15 | CCOc1noc(C(=O)O)c1CNc1c(N)c(=O)c1=O [Compound 17, [4-(2-Amino-3,4-dioxocyclobut-1-en-1-yl)aminomethyl]-3-ethoxyisoxazole-5-carboxylic Acid] |  |  | Profile (NMDA receptor): Antagonist; pKi (NMDA receptor): 3.3
